According to patent US8143446B2, “Substituted acrylamide derivative and pharmaceutical composition comprising the same” (Daiichi Sankyo Company, Limited, priority 2005, dated 2012):

Experiments:
[1] = test system: adjuvant arthritis model rats; test: Evaluation of bone density decrease-suppressing activity and anti-arthritic activity (adjuvant arthritis model); assay type: in vivo, rat; settings: oral 10 mg/kg once a day for 7 days from day 14 after adjuvant; for Paw edema-suppressing rate (%): hind paw volume on day 21, 8-week old female Lewis rats; for Bone density decrease-suppressing rate (%): thighbone bone density on day 21, 8-week old female Lewis rats
Description: In rheumatoid arthritis, not only swelling and pain caused by arthritis but also systemic bone mass decrease and articular destruction caused by a significant increase in bone resorption are observed.
The test was conducted using 8-week old female Lewis rats. Mycobacterium butyricum cells which were killed by heat were ground in an agate mortar, suspended in liquid paraffin sterilized by dry heat to a concentration of 2 mg/mL, and treated with ultrasound to prepare an adjuvant. Under ether anesthesia, rats in a control group other than a normal control group and rats in a test compound administration group were intradermally injected with 0.05 mL of this adjuvant each time (0.1 mL/rat in total) at two portions of the base of the tail. Starting from 14 days after the injection of the adjuvant, each rat was orally administered with 5 mL/kg of a test compound suspended in 0.5% MC once a day for 7 days. Similarly, the rats of the control group were administered with 0.5% MC alone. On the 21st day after the adjuvant injection, hind paw volumes were measured by using a paw edema volume determining device (MUROMACHI KIKAI, TK-101CMP). Then, the thighbone was biopsied. The thighbone was, after removing soft tissues, sufficiently fixed, dehydrated, and dried using ethanol. The bone density of the thighbone was measured with a bone density analyzer (Aloka, DOS-600 EX-IIIR). Five rats were used for each test group.
The evaluation was conducted by comparison tests with the normal control group and the control group and based on the bone density decrease-suppressing rate (%) and the paw edema-suppressing rate (%) calculated according to the following formulae: Bone density decrease-suppressing rate (%)=(1−([thighbone bone density in normal control group]−[thighbone bone density in test compound administration group])/([thighbone bone density in normal control group]−[thighbone bone density in control group]))×100 Paw edema-suppressing rate (%)=(1−([paw volume of test compound administration group]−[paw volume in normal control group])/([paw volume in control group]−[paw volume in normal control group]))×100

[2] = test system: 4-week old male Wistar rats; test: Evaluation of blood calcium concentration-decreasing activity (serum calcium after oral dosing of immature rats); assay type: in vivo, rat; settings: serum 6 hours after administration, fasted 4-week old male Wistar rats, vs normal control group
Description: The blood calcium concentration in a living body is strictly controlled and constantly maintained by intestinal absorption and urinary excretion and release (bone resorption) and adhesion (bone formation) in bone tissues. […] The bone resorption-suppressing activity of compounds according to the present invention was evaluated by administering the compounds to immature rats and observing decreases in blood calcium concentration as an index of the activity.
The test was conducted using 4-week old male Wistar rats fasted for 12 to 24 hours. Each compound to be tested was suspended in 0.5% methyl cellulose (MC). The suspension was orally administered to the rats at a dose of 5 mL/kg. Similarly, rats of a normal control group were administered with 0.5% MC alone. Then, blood was drawn from rat jugular vein under ether anesthesia 6 hours after the administration of each test compound or 0.5% MC. The blood was immediately centrifuged (10000 rpm, 5 minutes) at room temperature to separate serum. The calcium concentration of each serum was measured by an autoanalyzer (JEOL, JCA-BM2250). Five rats were used for each test group.
The evaluation was conducted by a comparative test with the normal control group and based on the serum calcium concentration-decreasing rate (%) calculated according to the following formula:
Serum calcium concentration-decreasing rate (%)=(([serum calcium concentration in normal control group] - [serum calcium concentration in test compound administration group])/[serum calcium concentration in normal control group])×100.

SMILES	melting point [°C]	Paw edema-suppressing rate (%) [1] [%]	Bone density decrease-suppressing rate (%) [1] [%]	Serum calcium concentration-decreasing rate (%) ([2]; administration dose 10 mg/kg)	Serum calcium concentration-decreasing rate (%) ([2]; administration dose 20 mg/kg)
CC(C)Oc1ccc(/C=C(\NC(=O)c2ccc(OCCc3ccc(N(C)C)cc3)cc2)C(=O)NCCO)cc1.Cl	103 to 105	–	–	–	–
CC(C)COc1ccc(C(=O)N/C(=C\c2ccc3ccccc3c2)C(=O)NCCO)cc1 [Example 2-6, N-[(Z)-1-{[(2-hydroxyethyl)amino]carbonyl}-2-(2-naphthyl)vinyl]-4-isobutoxybenzamide]	150 to 152	–	–	–	–
CC(C)COc1ccc(C(=O)N/C(=C\c2ccc(C(F)(F)F)nc2)C(=O)NCCO)cc1 [Example 2-16, N-{(Z)-1-{[(2-hydroxyethyl)amino]carbonyl}-2-[6-(trifluoromethyl)pyridin-3-yl]vinyl}-4-isobutoxybenzamide]	184 to 187	–	–	–	–
CC(C)COc1ccc(C(=O)N/C(=C\c2ccc(OC(C)C)cc2)C(=O)NCCO)cn1 [Example 2-19, N-[(Z)-1-{[(2-hydroxyethyl)amino]carbonyl}-2-(4-isopropoxyphenyl)vinyl]-6-isobutoxynicotinamide]	74 to 76	–	–	–	–
CC(C)COc1ccc(C(=O)N/C(=C\c2ccc(OC(C)C)cc2)C(=O)NCCO)c(F)c1 [Example 2-21, 2-fluoro-N-[(Z)-1-{[(2-hydroxyethyl)amino]carbonyl}-2-(4-isopropoxyphenyl)vinyl]-4-isobutoxybenzamide]	51 to 54	–	–	–	–
COc1ccc(CCOc2ccc(C(=O)N/C(=C\c3ccc(OC(F)(F)F)cc3)C(=O)NCCO)cc2)cc1 [Example 3, N-{(Z)-1-{[(2-Hydroxyethyl)amino]carbonyl}-2-[4-(trifluoromethoxy)phenyl]vinyl}-4-[2-(4-methoxyphenyl)ethoxy]benzamide]	–	22	57	–	–
COc1ccc(CCOc2ccc(C(=O)N/C(=C\c3ccc(C4CC4)cc3)C(=O)NCCO)cc2)cc1 [Example 5, N-((Z)-2-(4-Cyclopropylphenyl)-1-{[(2-hydroxyethyl)amino]carbonyl}vinyl)-4-[2-(4-methoxyphenyl)ethoxy]benzamide]	–	25	54	27.6	–
O=C(NCCO)/C(=C/c1ccc(C2CC2)cc1)NC(=O)c1ccc(OCCC2CC2)cc1 [Example 9, 4-(2-Cyclopropylethoxy)-N-((Z)-2-(4-cyclopropylphenyl)-1-{[(2-hydroxyethyl)amino]carbonyl}vinyl)benzamide]	–	11	37	–	29.3
O=C(NCCO)/C(=C/c1ccc(OC(F)(F)F)cc1)NC(=O)c1ccc(OCCC2CC2)cc1 [Example 11, 4-(2-Cyclopropylethoxy)-N-{(Z)-1-{[(2-hydroxyethyl)amino]carbonyl}-2-[4-(trifluoromethoxy)phenyl]vinyl}benzamide]	–	29	40	–	30.6
O=C(NCCO)/C(=C/c1ccc(Cl)cc1)NC(=O)c1ccc(OCCC2CC2)cc1 [Example 14, N-((Z)-2-(4-Chlorophenyl)-1-{[(2-hydroxyethyl)amino]carbonyl}vinyl)-4-(2-cyclopropylethoxy)benzamide]	–	12	86	33.2	–
O=C(NCCO)/C(=C/c1ccc(OC2CC2)cc1)NC(=O)c1ccc(OCCC2CC2)cc1 [Example 16, 4-(2-Cyclopropylethoxy)-N-((Z)-2-[4-(cyclopropyloxy)phenyl]-1-{[(2-hydroxyethyl)amino]carbonyl}vinyl)benzamide]	–	35	70	27.2	–
